{"source": "patent US20110053900A1", "about": "“PROGESTERONE ANTAGONISTS SUCH AS CDB-4124 IN THE TREATMENT OF BREAST CANCER” (Repros Therapeutics inc, priority 2008, published 2011)", "key": {"[1]": {"assay": "Serum corticosterone by ELISA", "format": "in vivo, rat", "conditions": "exogenous progesterone 10 mg/kg, after 21 days of treatment, paired groups", "description": "(§1) The animals were assessed three times for their levels of progesterone: initially, when they were about to go on treatment; a second time after 21 days of treatment; and finally after treatment at sacrifice which was 2-4 days after the last s.c. injection. All blood samples were taken by heart puncture; serum was prepared and held frozen at −40° C. The levels of the steroid hormones progesterone, cortisol, and corticosterone were determined by ELISA.\n(§2) The concentrations of steroid hormones were determined three times during the study: before the beginning of treatments, after 21 days of treatment and finally after treatment at sacrifice which was 2-4 days after the last s.c. injection. All samples were taken by heart puncture. Serum was obtained and held frozen at −40° C. The levels of steroid hormones were determined by ELISA.\nCorticosterone is the most abundant glucocorticoid in rats. The effects of the SPRMs on cortisol may be secondary to strong effects on corticosterone. […] The levels of corticosterone were 10-40 times higher than the levels of cortisol. However, almost no difference between groups with respect to mean corticosterone levels was observed. […] There was no statistical difference in levels of corticosterone between animals with tumors and without tumors at either 21-days (p=0.94, t-test, two-tailed) or at sacrifice (p=0.37, t-test, two-tailed)."}, "[2]": {"tested_on": "rat tumors (proliferation marker Ki-67)", "assay": "Tumor proliferation by Ki-67 immunohistochemistry", "format": "in vivo", "conditions": "10 mg/kg", "excerpt": "In order to assess the effects of progestins and anti-progestins on cell proliferation, tissue sections derived from 46 individual rat tumors from treated an control animals were examined by measuring expression of the proliferation marker Ki-67 using the Ki-67 antibody (NeoMarkers, Fremont, Calif.) and immunohistochemistry. Despite the reduction in size of many tumors in Groups 3 and 6 following treatment in Groups 3 and 6 making them too small to be re-cut, 7-12 ACAs from Groups 1, 3, 4, 6 and 11 were re-cut. The results of proliferation experiments, in which proliferation was measured as a percentage of cells expressing Ki-67, are summarized in Table 4: […]"}, "estrogen receptor (ER)": {"tested_on": "estrogen receptor (ER)", "assay": "Expression of estrogen receptor in tumors (IHC)", "format": "in vivo, rat", "conditions": "10 mg/kg", "description": "(§3) The tumors that were evaluated for proliferation and apoptosis were also assessed for expression of estrogen and progesterone receptors by immunohistochemistry (IHC). The percentage of cells positive for ER and PR was determined and analyzed. Tumors were grouped into four different categories: tumors with 0% of cells expressing ER, tumors with 10% of cells expressing ER, tumors with 15 to 30% of cells expressing ER and tumors with 30-50% of cells expressing ER. In general, untreated tumors consistently expressed ER. Out of 12 tumors analyzed, all 12 expressed ER. Four out of these 12 tumors contained 30-50% ER-positive cells."}, "[3]": {"assay": "Serum progesterone by ELISA", "format": "in vivo, rat", "description": "as §1, §2"}, "[4]": {"tested_on": "DMBA-induced tumors of the rat mammary gland", "assay": "DMBA-induced breast tumors: tumor number, size and tumor burden at necropsy", "format": "in vivo", "conditions": "10 mg/kg s.c. daily, 28 days", "description": "(§4) To induce breast tumors, Sprague-Dawley female rats were given 10 mg/kg body weight of DMBA at 50 days of age. One group of 14 rats (Group 2) received sesame oil at 50 days of age instead of DMBA to serve as the no-DMBA controls. Animals were weighed and palpated weekly along the milk line for any sign of lesions or swellings. Tumor nodules were noted and measured weekly in two dimensions with calipers. When tumors grew to a size of 10-12 mm in any dimension, the individual animal was randomized into one of 14 groups. Tumors appeared as soon as 39 days after oral gavage and as late as 194 days (latter individual not included in study). The mean latency period for tumor appearance was 106±30 days.\n(§5) Animals were treated for 28 days on the following schedule. Group 1 received daily subcutaneous (s.c.) injections of vehicle (10% ethanol in sesame oil). Group 2 (no DMBA control group-no tumors expected) received vehicle on a schedule decided beforehand to simulate initiation of treatment over a three-month time period. […] Groups 5 through 9 received 20 mg/kg, 10 mg/kg, 2 mg/kg, 1 mg/kg and 0.1 mg/kg of CDB-4124, respectively. Groups 10 through 14 mirrored the treatment given 5 through 9 except that 10 mg/kg of micronized progesterone was also added as a component to compositions for injections.\n(§6) Animals were sacrificed 3-5 days after the end of the 28-day treatment period, blood was drawn, and tumors were removed, weighed, measured, inspected, and portions frozen and/or placed in 10% phosphate buffered formalin for histopathology. The tissue samples were cut and stained with hematoxylin and eosin and were evaluated for histopathological classification.\nThe results in Table 3 are those for ACA, PCA and mixed ACA/PCA, but the FA or AF tumors are excluded."}, "rat tumors": {"tested_on": "rat tumors", "assay": "Apoptosis in tumors", "format": "in vivo", "conditions": "10 mg/kg", "description": "Apoptosis was evaluated in the same tumors by an apoptosis hybridization kit (Oncor, Gaithersburg, Md.). The cells in apoptosis were evaluated in the peripheral areas of the tumors and far from necrosis. At least 1,000 cells per tumor section were evaluated."}, "[5]": {"tested_on": "DMBA-induced tumors of the rat mammary gland", "assay": "DMBA-induced breast tumors: tumor progression (growth pattern)", "format": "in vivo", "conditions": "10 mg/kg", "description": "as §4, §5\nIn order to evaluate the effects of CDB-4124, RU486 and progesterone on tumor development and progression, growth kinetics and tumor size were monitored during the treatment period. Individual tumors from animals with tumors in the study were measured weekly in two dimensions with calipers. The data is corrected to exclude the non-malignant FA/AF tumor types. Tumors that increased in cross-sectional area by at least 33% over the 28-day inspection period were considered to be growing (FIG. 1, black boxes). Those that decreased by approximately 33% were considered to be regressing (FIG. 1, white boxes). Others were considered to be static (FIG. 1, gray boxes)."}, "[6]": {"tested_on": "progesterone receptor (PR)", "assay": "Expression of progesterone receptor in tumors (IHC)", "format": "in vivo, rat", "conditions": "10 mg/kg", "description": "as §3\nUntreated tumors consistently expressed PR (12/12 tumors). In general, untreated tumors expressed both receptors, ER and PR, therefore it is possible that many malignant tumors are expressors of these two transcription factors. […] In general, long term treatment with CDB-4124 tends to drive down the level of PR in tumors, whereas progesterone tends to work in the opposite direction. Thus, tumors maintain progesterone responsiveness in the presence of progesterone."}, "[7]": {"tested_on": "DMBA-induced tumors of the rat mammary gland", "assay": "DMBA-induced breast tumors: tumor number and tumor type at necropsy", "format": "in vivo", "conditions": "10 mg/kg s.c. daily, 28 days", "description": "as §4, §5, §6\nHistologically, four types of tumors were identified (Table 2): adenocarcinomas (ACAs), papillary carcinomas (PCAs), a fibrosarcoma, and fibroadenomas or adenofibromas (FA or AF), the latter two tumor types were not considered to represent frank malignancies."}}, "data": [{"smiles": "CC(=O)[C@H]1CC[C@H]2[C@@H]3CCC4=CC(=O)CC[C@]4(C)[C@H]3CC[C@]12C", "note": "[Progesterone, progesterone]", "values": [{"measurement": "effect on serum corticosterone (in words)", "setting": "[1]", "result": "levels of corticosterone were lowered"}, {"measurement": "Proliferating tumor cells by Ki-67, % cells positive", "setting": "[2]", "result": "25.7 ± 5.8", "unit": "%"}, {"measurement": "number of cells expressing ER in tumors (in words)", "setting": "estrogen receptor (ER)", "result": "increased number of cells expressing ER"}, {"measurement": "Serum Progesterone, Before TX (mean)", "setting": "[3]; 10 mg/kg group, before treatment", "result": 51, "unit": "ng/mL"}, {"measurement": "Serum Progesterone, During TX (mean)", "setting": "[3]; 10 mg/kg, after 21 days of treatment", "result": 55, "unit": "ng/mL"}, {"measurement": "Serum Progesterone, After TX (mean)", "setting": "[3]; 10 mg/kg, at sacrifice 2-4 days after the last s.c. injection", "result": 54, "unit": "ng/mL"}, {"measurement": "Tumor Burden", "setting": "[4]", "result": 7.34, "unit": "g/rat"}, {"measurement": "Tumor Weight mean", "setting": "[4]", "result": 1.5, "unit": "g"}, {"measurement": "Tumor Weight median", "setting": "[4]", "result": 0.5, "unit": "g"}, {"measurement": "Number of Tumors", "setting": "[4]; FA/AF excluded", "result": 49}, {"measurement": "Apoptosis, % cells positive", "setting": "rat tumors", "result": "1.28 ± 0.51", "unit": "%"}, {"measurement": "proportion of tumors regressing", "setting": "[5]; decrease of cross-sectional area by about 33% over 28 days", "result": 8, "unit": "%"}, {"measurement": "proportion of the growing tumors", "setting": "[5]; increase of cross-sectional area by at least 33% over 28 days", "result": 80, "unit": "%"}, {"measurement": "PR expression in tumors (in words)", "setting": "[6]", "result": "tended to raise PR expression"}, {"measurement": "ACA + PCA per rat", "setting": "[7]", "result": 4.90}, {"measurement": "ACA per rat", "setting": "[7]", "result": 3.3}, {"measurement": "FA/AF no.", "setting": "[7]", "result": 3}, {"measurement": "Incidence of tumors (%)", "setting": "[7]", "result": "(100) %"}, {"measurement": "Incidence of tumors (rats with tumors/rats)", "setting": "[7]", "result": "10/10"}, {"measurement": "PCA per rat", "setting": "[7]", "result": 1.4}, {"measurement": "ACA + PCA per rat", "setting": "[7]; listed as progesterone", "result": "~5"}]}]}
